Assay results taken from ChEMBL document CHEMBL5465560, “Selectivity Literature for EUbOPEN Chemogenomic Library” (2024).

Experiments:
[1] = target: T1, cGMP-dependent protein kinase 2 (Homo sapiens) (UniProt Q13237); assay: Selectivity interaction (KinomeScan (DiscoverX)) EUB0000695a PRKG2; details: at 100 nM
T1 sequence (whole entry): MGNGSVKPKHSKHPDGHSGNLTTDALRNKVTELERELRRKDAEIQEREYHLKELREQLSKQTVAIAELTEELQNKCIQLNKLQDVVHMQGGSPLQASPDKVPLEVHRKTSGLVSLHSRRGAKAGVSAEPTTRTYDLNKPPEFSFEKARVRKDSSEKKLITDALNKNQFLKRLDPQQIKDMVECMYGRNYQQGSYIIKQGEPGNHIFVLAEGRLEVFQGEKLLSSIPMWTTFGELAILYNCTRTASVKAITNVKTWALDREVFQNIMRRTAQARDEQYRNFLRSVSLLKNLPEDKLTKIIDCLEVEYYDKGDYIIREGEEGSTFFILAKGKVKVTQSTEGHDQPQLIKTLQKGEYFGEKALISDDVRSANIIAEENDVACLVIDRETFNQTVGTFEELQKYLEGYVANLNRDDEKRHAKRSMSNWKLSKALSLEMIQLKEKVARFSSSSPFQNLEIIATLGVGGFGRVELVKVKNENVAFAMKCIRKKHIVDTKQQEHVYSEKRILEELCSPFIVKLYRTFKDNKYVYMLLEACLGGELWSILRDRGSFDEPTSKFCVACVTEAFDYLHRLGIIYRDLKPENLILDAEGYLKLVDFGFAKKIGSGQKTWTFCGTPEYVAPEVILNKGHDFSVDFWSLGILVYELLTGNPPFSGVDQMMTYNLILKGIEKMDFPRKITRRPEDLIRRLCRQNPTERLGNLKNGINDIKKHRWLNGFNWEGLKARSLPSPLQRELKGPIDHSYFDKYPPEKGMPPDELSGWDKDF

[2] = target: RAC-beta serine/threonine-protein kinase (Homo sapiens) (UniProt P31751); details: at 10 µM
RAC-beta serine/threonine-protein kinase (Homo sapiens), sequence (P31751 whole entry): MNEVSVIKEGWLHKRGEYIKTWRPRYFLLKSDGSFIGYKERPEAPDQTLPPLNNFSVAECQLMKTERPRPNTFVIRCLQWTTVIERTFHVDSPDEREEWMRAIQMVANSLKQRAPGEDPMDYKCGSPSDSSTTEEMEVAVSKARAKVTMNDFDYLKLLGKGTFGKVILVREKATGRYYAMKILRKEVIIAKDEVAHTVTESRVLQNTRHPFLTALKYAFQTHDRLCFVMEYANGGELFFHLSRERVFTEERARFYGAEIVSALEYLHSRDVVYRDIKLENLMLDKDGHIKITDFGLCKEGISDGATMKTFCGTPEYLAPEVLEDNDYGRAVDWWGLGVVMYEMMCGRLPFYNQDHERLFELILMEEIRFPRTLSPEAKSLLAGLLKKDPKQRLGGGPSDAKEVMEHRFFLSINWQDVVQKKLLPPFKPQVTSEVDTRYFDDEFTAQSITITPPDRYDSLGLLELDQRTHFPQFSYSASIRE

Histamine H1 receptor = Histamine H1 receptor (Homo sapiens, UniProt P35367); assay: Selectivity interaction (Histamine H1 receptor assay, human recombinant ) EUB0000877a HRH1
Histamine H1 receptor, sequence (P35367 whole entry): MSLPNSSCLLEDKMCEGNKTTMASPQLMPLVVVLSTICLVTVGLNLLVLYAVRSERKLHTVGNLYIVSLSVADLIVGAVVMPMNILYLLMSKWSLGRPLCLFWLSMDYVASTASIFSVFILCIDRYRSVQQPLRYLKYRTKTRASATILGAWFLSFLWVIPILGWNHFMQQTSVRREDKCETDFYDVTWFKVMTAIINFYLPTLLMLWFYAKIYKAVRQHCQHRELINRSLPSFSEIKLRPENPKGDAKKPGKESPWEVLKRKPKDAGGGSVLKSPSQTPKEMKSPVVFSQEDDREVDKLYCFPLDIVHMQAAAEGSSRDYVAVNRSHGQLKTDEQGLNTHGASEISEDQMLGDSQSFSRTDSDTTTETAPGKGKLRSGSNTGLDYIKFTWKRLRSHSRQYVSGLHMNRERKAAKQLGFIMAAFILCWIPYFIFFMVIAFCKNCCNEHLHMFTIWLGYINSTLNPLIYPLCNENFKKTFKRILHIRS

[3] = target: Serine/threonine-protein kinase MRCK beta (Homo sapiens) (UniProt Q9Y5S2); assay: Selectivity interaction (ProQinase) EUB0000171b CDC42BPB
Serine/threonine-protein kinase MRCK beta (Homo sapiens), sequence (Q9Y5S2 whole entry): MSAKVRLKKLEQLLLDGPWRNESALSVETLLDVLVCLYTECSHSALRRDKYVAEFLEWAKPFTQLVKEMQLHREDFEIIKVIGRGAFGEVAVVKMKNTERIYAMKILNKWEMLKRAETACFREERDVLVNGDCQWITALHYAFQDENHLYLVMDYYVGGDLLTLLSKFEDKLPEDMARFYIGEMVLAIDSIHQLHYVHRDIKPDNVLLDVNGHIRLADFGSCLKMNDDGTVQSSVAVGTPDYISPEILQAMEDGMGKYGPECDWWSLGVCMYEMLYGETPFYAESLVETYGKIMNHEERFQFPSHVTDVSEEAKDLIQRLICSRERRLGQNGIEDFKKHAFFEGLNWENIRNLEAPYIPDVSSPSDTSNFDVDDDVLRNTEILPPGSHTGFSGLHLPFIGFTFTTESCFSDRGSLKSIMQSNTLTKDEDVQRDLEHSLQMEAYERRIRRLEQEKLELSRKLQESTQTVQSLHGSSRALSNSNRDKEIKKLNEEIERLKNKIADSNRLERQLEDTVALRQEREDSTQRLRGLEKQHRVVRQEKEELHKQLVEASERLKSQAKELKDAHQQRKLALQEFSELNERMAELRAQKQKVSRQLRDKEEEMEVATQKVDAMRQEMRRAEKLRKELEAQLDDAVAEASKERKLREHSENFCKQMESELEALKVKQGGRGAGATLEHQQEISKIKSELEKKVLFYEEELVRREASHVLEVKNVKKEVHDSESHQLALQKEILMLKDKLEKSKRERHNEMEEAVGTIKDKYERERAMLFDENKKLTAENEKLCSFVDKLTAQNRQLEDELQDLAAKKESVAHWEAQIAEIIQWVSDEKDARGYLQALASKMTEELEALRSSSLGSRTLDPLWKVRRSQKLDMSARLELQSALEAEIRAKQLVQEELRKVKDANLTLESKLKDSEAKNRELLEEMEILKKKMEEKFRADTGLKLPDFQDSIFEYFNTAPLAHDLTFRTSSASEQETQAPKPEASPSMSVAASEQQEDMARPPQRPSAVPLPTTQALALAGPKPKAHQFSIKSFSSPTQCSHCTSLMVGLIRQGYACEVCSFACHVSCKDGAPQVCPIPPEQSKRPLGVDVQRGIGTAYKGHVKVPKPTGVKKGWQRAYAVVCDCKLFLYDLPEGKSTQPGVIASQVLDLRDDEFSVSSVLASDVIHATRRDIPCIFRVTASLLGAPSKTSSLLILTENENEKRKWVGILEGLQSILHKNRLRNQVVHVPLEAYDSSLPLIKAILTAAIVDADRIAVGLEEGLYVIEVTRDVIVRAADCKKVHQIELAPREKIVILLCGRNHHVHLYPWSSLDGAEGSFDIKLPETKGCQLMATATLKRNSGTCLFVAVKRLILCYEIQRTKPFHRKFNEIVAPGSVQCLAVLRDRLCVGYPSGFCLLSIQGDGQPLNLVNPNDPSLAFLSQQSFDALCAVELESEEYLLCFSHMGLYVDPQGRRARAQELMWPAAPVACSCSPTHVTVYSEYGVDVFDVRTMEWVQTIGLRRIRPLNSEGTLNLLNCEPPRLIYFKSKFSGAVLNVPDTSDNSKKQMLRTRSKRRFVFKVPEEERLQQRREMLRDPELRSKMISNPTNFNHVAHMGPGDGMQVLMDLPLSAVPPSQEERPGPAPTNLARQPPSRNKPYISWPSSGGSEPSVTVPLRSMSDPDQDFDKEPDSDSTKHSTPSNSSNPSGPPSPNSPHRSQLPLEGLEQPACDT

[4] = target: T2, Serine/threonine-protein kinase TAO2 (Homo sapiens) (UniProt Q9UL54); assay: Selectivity interaction (ProQinase) EUB0000171b TAOK2
T2 sequence (whole entry): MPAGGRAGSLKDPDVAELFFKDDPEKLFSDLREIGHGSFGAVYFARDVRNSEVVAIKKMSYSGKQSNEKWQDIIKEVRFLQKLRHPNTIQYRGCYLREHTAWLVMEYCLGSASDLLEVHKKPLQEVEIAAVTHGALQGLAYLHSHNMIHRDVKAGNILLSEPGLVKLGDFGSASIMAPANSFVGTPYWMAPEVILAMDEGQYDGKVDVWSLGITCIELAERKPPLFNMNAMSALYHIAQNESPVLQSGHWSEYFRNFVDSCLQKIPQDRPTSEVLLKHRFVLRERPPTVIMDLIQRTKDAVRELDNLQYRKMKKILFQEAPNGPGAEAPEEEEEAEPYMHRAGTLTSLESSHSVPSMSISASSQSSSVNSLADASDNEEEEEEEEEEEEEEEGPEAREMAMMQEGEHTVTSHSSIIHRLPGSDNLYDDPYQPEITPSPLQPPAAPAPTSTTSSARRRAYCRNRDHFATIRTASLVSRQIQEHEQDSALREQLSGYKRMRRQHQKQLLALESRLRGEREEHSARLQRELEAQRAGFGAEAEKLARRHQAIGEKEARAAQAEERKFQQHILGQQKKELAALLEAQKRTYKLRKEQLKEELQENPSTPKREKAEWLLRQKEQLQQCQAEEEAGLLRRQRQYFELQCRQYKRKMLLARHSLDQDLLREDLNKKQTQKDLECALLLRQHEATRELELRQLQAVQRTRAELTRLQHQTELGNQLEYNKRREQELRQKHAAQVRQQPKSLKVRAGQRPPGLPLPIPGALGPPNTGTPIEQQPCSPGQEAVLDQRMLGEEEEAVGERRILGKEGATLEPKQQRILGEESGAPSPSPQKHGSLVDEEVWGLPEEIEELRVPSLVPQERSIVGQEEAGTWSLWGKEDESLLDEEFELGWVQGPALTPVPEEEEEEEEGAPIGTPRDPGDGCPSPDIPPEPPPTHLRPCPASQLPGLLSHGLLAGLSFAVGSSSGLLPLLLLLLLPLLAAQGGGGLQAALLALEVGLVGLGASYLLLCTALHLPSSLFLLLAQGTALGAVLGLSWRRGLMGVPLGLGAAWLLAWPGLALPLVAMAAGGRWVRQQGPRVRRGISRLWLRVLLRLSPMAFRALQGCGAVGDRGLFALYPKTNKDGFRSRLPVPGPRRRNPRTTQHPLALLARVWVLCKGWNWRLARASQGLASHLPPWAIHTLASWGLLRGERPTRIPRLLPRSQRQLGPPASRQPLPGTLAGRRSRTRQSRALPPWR

[5] = target: T3, Megakaryocyte-associated tyrosine-protein kinase (Homo sapiens) (UniProt P42679); assay: Selectivity interaction (KinomeScan (DiscoverX)) EUB0001619a MATK; details: at 1 µM
T3 sequence (whole entry): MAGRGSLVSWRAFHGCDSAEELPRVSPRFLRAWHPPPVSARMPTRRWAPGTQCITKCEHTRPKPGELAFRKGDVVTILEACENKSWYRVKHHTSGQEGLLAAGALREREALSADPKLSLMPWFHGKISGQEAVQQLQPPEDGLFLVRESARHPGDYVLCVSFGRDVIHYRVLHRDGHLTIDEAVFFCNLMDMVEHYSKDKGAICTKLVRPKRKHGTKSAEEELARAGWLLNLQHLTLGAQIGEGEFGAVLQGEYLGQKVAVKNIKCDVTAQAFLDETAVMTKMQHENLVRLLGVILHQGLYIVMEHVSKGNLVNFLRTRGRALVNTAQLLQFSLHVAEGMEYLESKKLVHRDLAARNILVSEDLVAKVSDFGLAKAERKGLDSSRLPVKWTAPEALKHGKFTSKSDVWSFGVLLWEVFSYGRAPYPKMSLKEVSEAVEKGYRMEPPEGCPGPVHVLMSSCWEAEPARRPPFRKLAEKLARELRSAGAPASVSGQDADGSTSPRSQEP

[6] = target: Tyrosine-protein kinase BTK (Homo sapiens, UniProt Q06187); assay: Selectivity interaction (Kinase panel (literature)) EUB0001199aCl BTK; details: at 1 µM
Tyrosine-protein kinase BTK, sequence (Q06187 whole entry): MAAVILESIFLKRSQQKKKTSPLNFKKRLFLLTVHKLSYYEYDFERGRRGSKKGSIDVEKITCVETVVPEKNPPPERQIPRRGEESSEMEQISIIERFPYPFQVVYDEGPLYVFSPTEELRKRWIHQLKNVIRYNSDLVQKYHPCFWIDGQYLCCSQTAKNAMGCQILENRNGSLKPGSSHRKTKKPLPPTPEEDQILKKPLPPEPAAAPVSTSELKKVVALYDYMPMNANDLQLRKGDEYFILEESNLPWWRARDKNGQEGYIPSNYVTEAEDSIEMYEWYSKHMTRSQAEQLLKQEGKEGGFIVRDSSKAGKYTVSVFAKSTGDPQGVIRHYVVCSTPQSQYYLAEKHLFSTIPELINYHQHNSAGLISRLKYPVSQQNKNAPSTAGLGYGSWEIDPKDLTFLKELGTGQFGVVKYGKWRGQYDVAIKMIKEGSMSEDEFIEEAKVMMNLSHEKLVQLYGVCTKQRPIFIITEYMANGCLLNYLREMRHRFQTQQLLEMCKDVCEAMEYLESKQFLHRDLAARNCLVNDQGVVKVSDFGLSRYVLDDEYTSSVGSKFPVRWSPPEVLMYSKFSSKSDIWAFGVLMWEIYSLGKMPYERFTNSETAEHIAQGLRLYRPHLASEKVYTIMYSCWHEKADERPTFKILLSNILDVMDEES

[7] = target: Serine/threonine-protein kinase pim-1 (Homo sapiens, UniProt P11309); assay: Selectivity interaction (SelectScreen profiling (Invitrogen)) EUB0000607a PIM1; details: at 2 µM
[8] = target: Mitogen-activated protein kinase kinase kinase 4 (Homo sapiens) (UniProt Q9Y6R4); assay: Selectivity interaction (Ambit KINOMEscan and KiNATiv profiling in Jurkat cells) EUB0000090b MAP3K4; assay type: cell-based; details: at 1 µM
Mitogen-activated protein kinase kinase kinase 4 (Homo sapiens), sequence (Q9Y6R4 whole entry): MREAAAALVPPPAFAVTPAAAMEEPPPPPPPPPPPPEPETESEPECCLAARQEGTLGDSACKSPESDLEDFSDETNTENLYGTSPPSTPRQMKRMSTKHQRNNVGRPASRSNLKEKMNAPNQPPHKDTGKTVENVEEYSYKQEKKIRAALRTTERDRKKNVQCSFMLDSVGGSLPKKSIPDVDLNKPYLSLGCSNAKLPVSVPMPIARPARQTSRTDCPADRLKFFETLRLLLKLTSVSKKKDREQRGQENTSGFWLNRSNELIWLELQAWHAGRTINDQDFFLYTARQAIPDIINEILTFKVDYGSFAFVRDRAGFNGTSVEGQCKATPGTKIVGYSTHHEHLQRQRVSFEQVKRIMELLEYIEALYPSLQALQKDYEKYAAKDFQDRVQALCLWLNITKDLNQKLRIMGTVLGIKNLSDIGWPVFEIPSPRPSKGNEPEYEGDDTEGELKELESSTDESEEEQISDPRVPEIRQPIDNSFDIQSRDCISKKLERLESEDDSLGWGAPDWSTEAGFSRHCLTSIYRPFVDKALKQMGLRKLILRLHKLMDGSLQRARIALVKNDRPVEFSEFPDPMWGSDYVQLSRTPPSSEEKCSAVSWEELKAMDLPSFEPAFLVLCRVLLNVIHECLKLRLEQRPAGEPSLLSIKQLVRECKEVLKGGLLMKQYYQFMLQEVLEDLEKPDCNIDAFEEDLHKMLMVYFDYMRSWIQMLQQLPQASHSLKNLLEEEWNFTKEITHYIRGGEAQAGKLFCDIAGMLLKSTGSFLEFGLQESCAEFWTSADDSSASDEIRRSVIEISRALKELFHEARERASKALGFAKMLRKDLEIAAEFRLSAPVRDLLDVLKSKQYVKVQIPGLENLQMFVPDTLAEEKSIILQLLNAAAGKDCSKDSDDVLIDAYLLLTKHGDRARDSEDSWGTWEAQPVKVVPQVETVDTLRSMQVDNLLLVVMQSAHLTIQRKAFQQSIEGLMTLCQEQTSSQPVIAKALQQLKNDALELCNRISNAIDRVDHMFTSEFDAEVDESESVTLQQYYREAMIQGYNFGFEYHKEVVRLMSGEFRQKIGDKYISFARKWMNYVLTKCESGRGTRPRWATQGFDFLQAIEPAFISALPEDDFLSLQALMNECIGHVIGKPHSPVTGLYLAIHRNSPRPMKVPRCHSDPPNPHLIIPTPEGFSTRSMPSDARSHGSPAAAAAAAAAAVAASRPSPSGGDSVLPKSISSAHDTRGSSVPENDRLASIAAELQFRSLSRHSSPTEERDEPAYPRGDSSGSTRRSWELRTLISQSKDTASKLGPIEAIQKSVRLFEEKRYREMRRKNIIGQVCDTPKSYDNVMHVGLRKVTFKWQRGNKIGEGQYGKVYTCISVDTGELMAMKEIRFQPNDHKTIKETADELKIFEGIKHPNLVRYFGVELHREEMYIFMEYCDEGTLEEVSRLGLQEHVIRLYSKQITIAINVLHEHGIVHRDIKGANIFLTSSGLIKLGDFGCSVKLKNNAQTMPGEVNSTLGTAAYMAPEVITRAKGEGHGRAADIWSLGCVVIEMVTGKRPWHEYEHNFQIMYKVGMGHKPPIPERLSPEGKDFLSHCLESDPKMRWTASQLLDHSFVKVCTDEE

Cc1cc(F)c(C(=O)Nc2cccc(-c3nncn3C(C)C)n2)cc1-n1cnc(C2CC2)c1
% of control [1]: 88%

Cc1cc([C@@H](C)Nc2ccccc2C(=O)O)c2nc(N3CCOCC3)cc(=O)n2c1 [AZD-6482]
% of control [2]: 86%

CCC(=O)N1CC[C@H](Nc2ncnc3c2CN(c2cnc(OC)c(C(F)(F)F)c2)CC3)C1 [LENIOLISIB]
IC50 (Histamine H1 receptor): > 30 µM

C=CC(=O)Nc1cccc(C(=O)Nc2ccc(Nc3cc(-c4[nH]c(SC)nc4C)ccn3)cc2)c1
% of control ([3]; at 1 µM): 89%
% of control ([3]; at 5 µM): 82%
% of control ([4]; at 1 µM): 38%
% of control ([4]; at 5 µM): 16%

N#Cc1cccc(-c2c[nH]c3ncnc(N4CCOCC4)c23)c1
% of control [5]: 82%

CN1Cc2nccc(-c3cn(C)nc3-c3ccc(F)cc3)c2C1=O
% of inhibition [6]: 2%

CNC(=O)Nc1ccc(-c2nc(N3CC4CCC(C3)O4)c3cnn(C4CCC5(CC4)OCCO5)c3n2)cc1
% of inhibition [7]: 1%

CN(C)C/C=C/C(=O)Nc1ccc(C(=O)N2CCCC(Nc3ncc(Cl)c(-c4c[nH]c5ccccc45)n3)C2)cc1 (stereo unspecified)
% of control [8]: 64%
